Measurements taken from paper PMC7707621, “Oxidized Juncuenin B Analogues with Increased Antiproliferative Activity on Human Adherent Cell Lines: Semisynthesis and Biological Evaluation” (Journal of Natural Products, 2020).
Entries after “also recorded” stand apart in the source; their conditions may differ.

Tests used:
C33A cells = assay: MTT antiproliferative assay on C33A; assay type: cell-based, human; conditions: for inhibition at 10 µM / inhibition at 30 µM / IC50: Homo sapiens, C-33-A; for inhibition at 10 µM / inhibition at 30 µM: read-out: Growth inhibition (% ± SEM), C33a; for IC50: MTT, 0.1–30 μM, 72 h, mean ± SEM, read-out: calculated IC50 values, C33A
Method: (§1) The antiproliferative assays of the products were carried out by a standard MTT method on human breast (MCF-7, T47D), cervical (HeLa, SiHa, C33A), and ovarian (A2780) cancer cells, and NIH/3T3 mouse embryonic fibroblast cell lines. In the first step, the diastereomeric and racemic mixtures 1–11 and the starting compound, juncuenin B, were tested to obtain information about their antiproliferative activity.
(§2) The antiproliferative activity and tumor selectivity of the compounds were measured by standard MTT assays. Tumor cell lines MCF-7, T47D, HeLa, A2780, and noncancerous NIH/3T3 were provided by European Collection of Authenticated Cell Cultures (ECACC, Salisbury, UK); cell lines SiHa and C33A by LGC Standards GmbH (Wesel, Germany). All chemicals and materials used for the antiproliferative assays were purchased from Sigma Aldrich Ltd. (Budapest, Hungary).
(§3) Growth-inhibition properties of racemates and pure enantiomer compounds were determined by standard MTT assays on six human malignant gynecological cell lines (MCF-7, T47D, HeLa, SiHa, C33A, A2780). To investigate tumor selectivity, the MTT assay was repeated on mouse embryonic fibroblast cells (NIH/3T3) under the same conditions. All cell lines were maintained in minimal essential medium (MEM) supplemented with 10% fetal bovine serum, 1% nonessential amino acids, and 1% penicillin–streptomycin–amphotericin B mixture, and were stored in humidified air containing 5% CO2 at 37 °C. All cell types were seeded into 96–well plates at a density of 5000 with the exception of C33a, which was seeded at a density of 10 000 and treated by increasing concentrations (0.1–30 μM) of the compounds for 72 h under cell culturing conditions. After the incubation, 5 mg/mL MTT [3-(4,5-dimethylthiazol-2-yl)-2,5-diphenyltetrazolium bromide] solution was added to samples for 4 h and precipitated blue formazan crystals were dissolved in DMSO. Absorbance values of the samples were measured at 545 nm using a microplate reader (Stat Fax-2100, Awareness Technologies Inc., Palm City, FL, USA) and untreated cells were used as control. Normalized sigmoidal dose–response curves were fitted to the determined data and the IC50 values were calculated by GraphPad Prism 5.01 (GraphPad Software, San Diego, CA, USA). Cisplatin (Ebewe Pharma GmbH, Unterach, Austria) was used as a reference agent in the same concentration range.

A2780 cells = assay: MTT antiproliferative assay on A2780; assay type: cell-based, human; conditions: for inhibition at 10 µM / inhibition at 30 µM / IC50: Homo sapiens; for inhibition at 10 µM: A2780, 10 μM; for inhibition at 10 µM / inhibition at 30 µM: read-out: Growth inhibition (% ± SEM), A2780; for inhibition at 30 µM: A2780, 30 μM; for IC50: A2780, MTT, 0.1–30 μM, 72 h, mean ± SEM, read-out: calculated IC50 values, A2780
Method: as §1, §2, §3

MCF-7 cells = assay: MTT antiproliferative assay on MCF-7; assay type: cell-based, human; conditions: for inhibition at 10 µM / inhibition at 30 µM / IC50: Homo sapiens; for inhibition at 10 µM: MCF7, 10 μM; for inhibition at 10 µM / inhibition at 30 µM: read-out: Growth inhibition (% ± SEM), MCF-7; for inhibition at 30 µM: MCF7, 30 μM; for IC50: MCF7, MTT, 0.1–30 μM, 72 h, mean ± SEM, read-out: calculated IC50 values, MCF-7
Method: as §1, §2, §3

T47D cells = assay: MTT antiproliferative assay on T47D; assay type: cell-based, human; conditions: for inhibition at 10 µM / inhibition at 30 µM / IC50: Homo sapiens, T47D; for inhibition at 10 µM / inhibition at 30 µM: read-out: Growth inhibition (% ± SEM), T47d; for IC50: MTT, 0.1–30 μM, 72 h, mean ± SEM, read-out: calculated IC50 values, T47D
Method: as §1, §2, §3

HeLa cells = assay: MTT antiproliferative assay on HeLa; assay type: cell-based, human; conditions: for inhibition at 10 µM / inhibition at 30 µM / IC50: Homo sapiens, HeLa; for inhibition at 10 µM / inhibition at 30 µM: read-out: Growth inhibition (% ± SEM), HeLa; for IC50: MTT, 0.1–30 μM, 72 h, mean ± SEM, read-out: calculated IC50 values, HeLa
Method: as §1, §2, §3

[1] = tested on: MCF-7, T47D, HeLa, SiHa, C33A, A2780 cells; assay: MTT antiproliferative assay, panel of human gynecological cancer cell lines (result in words); assay type: cell-based
Method: as §1, §2, §3

SiHa cells = assay: MTT antiproliferative assay on SiHa; assay type: cell-based, human; conditions: for inhibition at 10 µM / inhibition at 30 µM / IC50: Homo sapiens, SiHa; for inhibition at 10 µM / inhibition at 30 µM: read-out: Growth inhibition (% ± SEM), SiHa; for IC50: MTT, 0.1–30 μM, 72 h, mean ± SEM, read-out: calculated IC50 values, SiHa
Method: as §1, §2, §3

[2] = tested on: NIH/3T3 mouse embryonic fibroblast cells; assay: MTT assay for tumor selectivity on NIH/3T3; assay type: cell-based; conditions: Mus musculus, NIH3T3; for inhibition at 10 µM / inhibition at 30 µM: read-out: Growth inhibition (% ± SEM), NIH; for IC50: MTT, 0.1–30 μM, 72 h, mean ± SEM, read-out: calculated IC50 values, NIH/3T3
Method: as §1, §2, §3

Row | IC50 (A2780 cells) [µM] | IC50 (MCF-7 cells) [µM] | IC50 (T47D cells) [µM] | IC50 (HeLa cells) [µM] | Compound | inhibition at 10 µM (C33A cells; 10 μM) [%] | inhibition at 30 µM (C33A cells; 30 μM) [%] | inhibition at 10 µM (A2780 cells) [%] | inhibition at 30 µM (A2780 cells) [%] | inhibition at 10 µM (MCF-7 cells) [%] | inhibition at 30 µM (MCF-7 cells) [%] | inhibition at 10 µM (T47D cells; 10 μM) [%] | inhibition at 30 µM (T47D cells; 30 μM) [%] | inhibition at 10 µM (HeLa cells; 10 μM) [%] | inhibition at 30 µM (HeLa cells; 30 μM) [%] | antiproliferative activity (in words) [1] | inhibition at 10 µM (SiHa cells; 10 μM) [%] | inhibition at 30 µM (SiHa cells; 30 μM) [%] | IC50 [2] [µM] | IC50 (C33A cells) [µM] | IC50 (SiHa cells) [µM] | also measured
1 |  |  |  |  | C=CC1=C(C)C(=O)C=C2C3(OC)C=CC(=O)C(C)=C3CCC21OC (centres unmarked) [Compound 2a] | < 10 | 31.9 ± 3.75 | < 10 | 54.6 ± 3.67 | 40.3 ± 0.95 | 30.5 ± 1.82 | < 10 | 19.8 ± 0.61 | 32.3 ± 4.15 | 30 ± 0.74 | did not exert antiproliferative activity; also recorded: No significant activities | 15.4 ± 1.68 | 16.9 ± 2.31 |  |  |  | 
2 |  |  |  |  | C=CC1=C(C)C(=O)C=C2C3(OC)C=CC(=O)C(C)=C3CCC21OC (centres unmarked) [Compound 2b] |  |  |  |  |  |  |  |  |  |  | did not exert antiproliferative activity; also recorded: No significant activities |  |  |  |  |  | Growth inhibition (% ± SEM), C33a (C33A cells; 10 μM): < 10%; Growth inhibition (% ± SEM), C33a (C33A cells; 30 μM): 23.25±2.82%; Growth inhibition (% ± SEM), A2780 (A2780 cells; 10 μM): < 10%; Growth inhibition (% ± SEM), A2780 (A2780 cells; 30 μM): 38.92±3.78%; Growth inhibition (% ± SEM), MCF-7 (MCF-7 cells; 10 μM): 27.86±1.80%; Growth inhibition (% ± SEM), MCF-7 (MCF-7 cells; 30 μM): 46.79±1.23%; Growth inhibition (% ± SEM), T47d (T47D cells; 10 μM): 16.79±1.72%; Growth inhibition (% ± SEM), T47d (T47D cells; 30 μM): 25.66±2.53%; Growth inhibition (% ± SEM), HeLa (HeLa cells; 10 μM): 16.35±1.56%; Growth inhibition (% ± SEM), HeLa (HeLa cells; 30 μM): 38.33±1.22%; Growth inhibition (% ± SEM), SiHa (SiHa cells; 10 μM): 14.10±2.36%; Growth inhibition (% ± SEM), SiHa (SiHa cells; 30 μM): 15.32±0.68%
3 |  |  |  |  | C=Cc1c(C)c(O)c(OC)c2c3c(ccc12)C(C)(OC)C(=O)C=C3 (centres unmarked) [Compound 3] | < 10 | 14.2 ± 1.51 | < 10 | < 10 | 22.7 ± 0.57 | 21.4 ± 0.34 | < 10 | 15.5 ± 2.06 | < 10 | 15 ± 1.11 | did not exert antiproliferative activity; also recorded: No significant activities | < 10 | < 10 |  |  |  | 
4 | > 30 | > 30 | > 30 | > 30 | C=CC1=C(C)C(=O)C=C2c3ccc(O)c(C)c3CC[C@]21OC [Compound 4b] | < 10 | 35.4 ± 0.8 | < 10 | 13.7 ± 2.81 | 24.4 ± 1.43 | 42 ± 1.94 | 16.5 ± 1.68 | 28.1 ± 1.79 | 19 ± 2.11 | 37.2 ± 0.72 | no relevant influence on the cell proliferation | < 10 | < 10 | > 30 | > 30 | > 30 | inhibition at 10 µM [2]: < 10%; inhibition at 30 µM [2]: < 10%
5 |  |  |  |  | C=CC1=C(C)C(=O)C=C2C3(OCC)C=CC(=O)C(C)=C3CCC21OCC (centres unmarked) [Compound 5] | < 10 | 10.3 ± 1.51 | < 10 | < 10 | < 10 | < 10 | < 10 | 14.1 ± 2.78 | < 10 | 14.4 ± 1.51 | did not exert antiproliferative activity; also recorded: No significant activities | < 10 | < 10 |  |  |  | 
6 | > 30 | > 30 | > 30 | > 30 | C=CC1=C(C)C(=O)C=C2c3ccc(O)c(C)c3CC[C@]21OCC [Compound 7b, 8a-ethoxy-1,7-dimethyl-6-oxo-8-vinyl-9,10-dihydrophenanthrene-2-ols] | < 10 | 26 ± 3 | < 10 | 20.6 ± 2.43 | < 10 | < 10 | < 10 | 13.5 ± 2.41 | 15 ± 2.72 | 31.7 ± 2.37 | no activity; also recorded: no relevant influence on the cell proliferation | < 10 | < 10 | > 30 | > 30 | > 30 | inhibition at 10 µM [2]: < 10%; inhibition at 30 µM [2]: 10.5 ± 1%
7 |  |  |  |  | C=Cc1c(C)c(O)cc2c3c(ccc12)C(C)(OCC)C(=O)C=C3 (centres unmarked) [Compound 8] | < 10 | 21.3 ± 1.52 | < 10 | < 10 | 13 ± 0.63 | 23.9 ± 2.11 | < 10 | 14.1 ± 2.02 | < 10 | 22.2 ± 1.15 | did not exert antiproliferative activity; also recorded: No significant activities | < 10 | 16.7 ± 2.83 |  |  |  | 
8 |  |  |  |  | C=CC1=C2CCc3c(ccc(O)c3C)C2=CC(=O)C1(C)OCC (centres unmarked) [Compound 9] | < 10 | < 10 | < 10 | < 10 | 10.7 ± 2.42 | 17 ± 2.56 | < 10 | 13.2 ± 2.03 | 15.1 ± 1.9 | 18.4 ± 3.15 | did not exert antiproliferative activity; also recorded: No significant activities | < 10 | < 10 |  |  |  | 
9 |  |  |  |  | C=CC1=C(C)C(=O)C(OCCCC)(OCCCC)c2c1ccc1c2C=CC(=O)C1(C)OCCCC (centres unmarked) [Compound 10] | < 10 | 16 ± 1.43 | < 10 | 10.1 ± 1.23 | < 10 | 42.5 ± 2.23 | < 10 | 33 ± 1.62 | < 10 | 14.1 ± 1.97 | did not exert antiproliferative activity | < 10 | 10.4 ± 2.8 |  |  |  | 
10 | 16.5 ± 2 | 18.2 ± 0.2 | 30 ± 0.5 | > 30 | C=CC1=C(C)C(=O)C=C2c3ccc(O)c(C)c3CCC21OCCCC (centres unmarked) [Compound 11] | 20.1 ± 2.24 | 65.5 ± 1.26 | 28.3 ± 2.31 | 77.82 ± 0.69 | 27.7 ± 1.3 | 82.46 ± 0.33 | 11.6 ± 1.4 | 52.9 ± 0.59 | < 10 | 42.6 ± 1.18 | No significant activities | < 10 | < 10 | > 30 | 19.9 ± 1.3 | > 30 | 
